The values below come from publication PMC4675551, “Protein Kinase C-Independent Inhibition of Organic Cation Transporter 1 Activity by the Bisindolylmaleimide Ro 31-8220” (PLoS ONE, 2015).

Structures are written as SMILES.

Common to all, as to format: cell-based
Experiment [1] has as its target T1, organic cation transporter 1 (OCT1) (Homo sapiens, UniProt O15245).
T1 construct: gene SLC22A1; NM_003057 overexpressed in HEK293 cells
T1 sequence (O15245 1-554): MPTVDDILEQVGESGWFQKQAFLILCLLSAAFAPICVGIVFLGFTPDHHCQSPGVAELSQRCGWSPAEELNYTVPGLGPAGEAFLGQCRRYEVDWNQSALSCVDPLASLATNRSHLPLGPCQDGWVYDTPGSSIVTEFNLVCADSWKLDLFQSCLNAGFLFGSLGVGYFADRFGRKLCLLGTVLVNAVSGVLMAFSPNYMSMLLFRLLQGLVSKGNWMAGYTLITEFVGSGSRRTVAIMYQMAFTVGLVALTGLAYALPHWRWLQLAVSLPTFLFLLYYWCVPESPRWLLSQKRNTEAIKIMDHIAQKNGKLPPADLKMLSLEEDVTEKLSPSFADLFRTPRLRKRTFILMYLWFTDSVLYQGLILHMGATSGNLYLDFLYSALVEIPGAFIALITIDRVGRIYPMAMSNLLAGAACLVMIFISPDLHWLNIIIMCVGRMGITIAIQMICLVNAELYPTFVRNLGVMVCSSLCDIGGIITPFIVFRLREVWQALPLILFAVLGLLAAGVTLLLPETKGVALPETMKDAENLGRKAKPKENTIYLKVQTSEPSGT
The experiment can be described thus: inhibition of TEA and DAPI uptake in HEK-OCT1 cells at […].

Experiment [2] concerns the target T1, organic cation transporter 1 (OCT1). The experiment is described as follows: inhibition of […]-TEA uptake in HEK-OCT1 cells, […], more than […] inhibition. To be noted: read-out: % inhibition at 5 μM.
The target in experiment [3] is T2, MATE2-K (Homo sapiens, UniProt Q86VL8).
T2 construct: gene SLC47A2; NM_152908 overexpressed in HEK293 cells
T2 sequence (Q86VL8 1-566 isoform Q86VL8-3): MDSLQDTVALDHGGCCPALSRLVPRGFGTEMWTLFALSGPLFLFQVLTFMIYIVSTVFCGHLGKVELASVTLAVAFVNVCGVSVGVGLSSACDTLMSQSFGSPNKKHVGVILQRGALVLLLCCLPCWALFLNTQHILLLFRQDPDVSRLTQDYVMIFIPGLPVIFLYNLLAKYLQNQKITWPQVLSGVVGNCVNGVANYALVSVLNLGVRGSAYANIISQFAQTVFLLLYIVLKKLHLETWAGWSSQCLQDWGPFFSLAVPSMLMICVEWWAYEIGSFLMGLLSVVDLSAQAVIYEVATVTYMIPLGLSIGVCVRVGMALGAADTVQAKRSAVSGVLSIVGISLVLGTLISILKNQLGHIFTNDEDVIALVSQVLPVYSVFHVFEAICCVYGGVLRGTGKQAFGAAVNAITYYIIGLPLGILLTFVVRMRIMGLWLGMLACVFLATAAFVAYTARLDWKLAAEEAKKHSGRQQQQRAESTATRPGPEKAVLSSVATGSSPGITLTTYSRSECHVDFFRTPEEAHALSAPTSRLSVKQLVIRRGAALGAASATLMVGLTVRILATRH
The experiment is described as follows: inhibition of […]-TEA uptake in HEK-MATE2-K cells.

In experiment [4] the target is T3, multidrug and toxin extrusion protein 1 (MATE1) (Homo sapiens, UniProt Q96FL8).
T3 construct: gene SLC47A1; NM_018242 overexpressed in HEK293 cells
T3 sequence (Q96FL8 1-570): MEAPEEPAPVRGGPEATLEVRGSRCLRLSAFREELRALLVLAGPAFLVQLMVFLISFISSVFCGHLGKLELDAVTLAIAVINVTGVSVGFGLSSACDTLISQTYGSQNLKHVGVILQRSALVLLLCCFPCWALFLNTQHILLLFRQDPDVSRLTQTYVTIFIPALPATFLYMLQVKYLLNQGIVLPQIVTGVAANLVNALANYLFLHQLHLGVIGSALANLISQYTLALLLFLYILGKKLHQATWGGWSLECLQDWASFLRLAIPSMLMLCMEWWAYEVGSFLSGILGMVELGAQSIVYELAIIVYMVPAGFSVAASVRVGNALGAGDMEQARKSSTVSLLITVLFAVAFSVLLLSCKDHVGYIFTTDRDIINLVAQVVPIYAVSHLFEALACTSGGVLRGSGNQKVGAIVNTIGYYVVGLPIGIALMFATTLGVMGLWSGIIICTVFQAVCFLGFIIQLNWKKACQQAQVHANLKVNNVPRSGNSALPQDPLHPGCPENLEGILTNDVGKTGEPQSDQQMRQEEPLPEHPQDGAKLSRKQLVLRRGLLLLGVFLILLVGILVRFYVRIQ
The experiment can be described thus: inhibition of […]-TEA uptake in HEK-MATE1 cells.

The target in experiment [5] is T4, organic cation transporter 2 (OCT2) (Homo sapiens, UniProt O15244).
T4 construct: gene SLC22A2; NM_003058 overexpressed in HEK293 cells
T4 sequence (O15244 1-555): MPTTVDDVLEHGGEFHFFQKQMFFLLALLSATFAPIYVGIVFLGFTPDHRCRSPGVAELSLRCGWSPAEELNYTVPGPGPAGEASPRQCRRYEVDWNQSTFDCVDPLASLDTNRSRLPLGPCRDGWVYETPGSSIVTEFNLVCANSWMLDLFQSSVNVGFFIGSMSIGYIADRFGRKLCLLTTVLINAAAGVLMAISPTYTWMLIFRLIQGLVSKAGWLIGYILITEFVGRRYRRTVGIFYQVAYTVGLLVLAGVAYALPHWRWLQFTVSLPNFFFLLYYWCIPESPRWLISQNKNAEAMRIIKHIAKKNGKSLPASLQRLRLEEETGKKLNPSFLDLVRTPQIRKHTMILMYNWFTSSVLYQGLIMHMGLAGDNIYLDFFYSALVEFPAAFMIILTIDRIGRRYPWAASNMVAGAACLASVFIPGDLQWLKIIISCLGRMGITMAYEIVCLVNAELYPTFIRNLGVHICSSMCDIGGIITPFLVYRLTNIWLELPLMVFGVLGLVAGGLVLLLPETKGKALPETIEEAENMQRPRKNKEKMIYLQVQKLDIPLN
The experiment can be described thus: cis-stimulation of […]-TEA uptake in HEK-OCT2 cells.

Experiment [6] deals with T1, organic cation transporter 1 (OCT1). The experiment is described as follows: cis-inhibition of […]-TEA uptake in HEK-OCT1 cells.

In the case of `COc1ccc(CCN(C)CCCC(C#N)(c2ccc(OC)c(OC)c2)C(C)C)cc1OC` (stereo not shown) [verapamil], the “inhibition of TEA and DAPI uptake in HEK-OCT1 cells at 50 μM” value in experiment [1] is on record as “the reference OCT1 inhibitor verapamil similarly inhibited DAPI uptake”.
Regarding `NCCCn1cc(C2=C(c3c[nH]c4ccccc34)C(=O)NC2=O)c2ccccc21` [BIM-III], the inhibition at 5 µM in experiment [2] is more than 50%.
On the same count and under the same terms, in the case of `CN(C)C[C@@H]1CCn2cc(c3ccccc32)C2=C(C(=O)NC2=O)c2cn(c3ccccc23)CCO1` [LY 333531] it was more than 50%; in that of `CN(C)CCCn1cc(C2=C(c3c[nH]c4ccccc34)C(=O)NC2=O)c2ccccc21` [BIM-I], more than 50%.
The same measure, in the same setting: in the case of `CN1CCCC1CCn1cc(C2=C(c3c[nH]c4ccccc34)C(=O)NC2=O)c2ccccc21` (stereo not shown) [BIM-II] it was more than 50%; in that of `Cn1cc(C2=C(c3cn(CCCN)c4ccccc34)C(=O)NC2=O)c2ccccc21` [BIM-VIII], more than 50%.
Take `Cn1cc(C2=C(c3cn(CCCSC(=N)N)c4ccccc34)C(=O)NC2=O)c2ccccc21` [BIM-IX, Ro 31–8220]: the IC50 stood at 190 ± 70 nM in experiment [3], 39 ± 6 nM in experiment [4] and 180 ± 50 nM in experiment [6]. In experiment [5], this molecule showed an EC50 of 400 ± 10 nM.
